The values below come from patent publication US11986532B2 (Arvinas Operations, Inc., priority 2021, dated 2024).

The target of this assay is T1, BCL6 (Homo sapiens, UniProt P41182).
T1 construct: endogenous in cells; host or cells: T47D breast cancer epithelial cells
As to the kind of experiment: Immunofluorescence protocol for high content imaging of BCL6 (degradation) in T47D cells, 3 days compound treatment. In kind it is cell-based. Conditions: T47D cells, 3 days compound treatment; for DC50: read-out: Mean DC50 (nM)* category; for Dmax: read-out: Mean Dmax (%)** category. As for the experimental part: Immunofluorescence Protocol for High Content Imaging of BCL6
T47D cells were seeded in 100 μl volume of RPMI1640-10% FBS in a 96-well black/clear bottom plates for adherent lines (Corning #3904).
Day 1. T47D breast cancer epithelial cells were seeded at a density so that confluence is ˜70-90% at endpoint. Cells were seeded at 7K/0.1 ml/well the morning prior to the addition of exemplary bifunctional degradation compounds.
Day 2. Prepare an 11 point 3-fold serial dilution of exemplary bifunctional compound in DMSO and aliquot an appropriate volume to cell growth media to generate a 2× final concentration of exemplary bifunctional compound. Add an equal volume (0.1 ml) of 2× exemplary bifunctional compound/media mix to previously plated cells, for a final top concentration in aqueous cell growth media of 0.1 or 1 μM. Incubate for 3 days at 37° C., 5% CO2.
Day 5 Immunofluorescence. Discard cell media. Wash wells with 200 μl of room temperature phosphate-buffered saline (PBS). Prepared 4% paraformaldehyde (PFA) from 16% PFA (Electron Microscopy Sciences #15710) using 1×PBS. Fifty μl of 4% PF was added to each well and incubate for 15 minutes at room temperature to fix the cells. The PFA was aspirated and the cells washed twice with PBS (200 μl)).
Prepared 0.1% Triton X-100 in PBS using 10% triton X-100 stock. The cells were permeabilized by adding 100 ul of the 0.1% Triton X-100 in PBS to each well to permeabilize cells and incubating at room temperature for 15 minutes. Cells were washed twice with PBS.
Prepared 3% BSA/PBS (from Thermofisher #37515 Blocker BSA in TBS, 10%), and 100 ul was added to each well. The cells were incubated for at least 1 hour at room temperature.
Prepared 1% BSA/PBS using Blocker BSA/PBS, and the 3% BSA/PBS removed from the wells.
For no primary antibody controls, 50 μl 1% BSA/PBS was added.
Primary antibody (BCL6 Rb Ab, CST-14895, Cell Signaling) was diluted 1:300 in 1% BSA/PBS using Blocker BSA/PBS.
Fifty μl of primary antibody added to all remaining wells (i.e., all wells other than the primary antibody controls) and the cells were incubated overnight at 4° C. with slow orbital movement.
Day 6. Contents of the wells was removed and the cells washed four times with 200 ul PBS. 1% BSA/PBS was prepared using Blocker BSA in PBS.
Diluted secondary antibody goat anti-Rb IgG Alexa-488 1:1000, and cell mask-Alexa-647 1:3000 in 1% BSA/PBS in the same mix. Add 50 μl to each well and incubate at room temperature for 1 hour in the dark.
Cells were washed three times with 200 ul PBS, and then incubated for 10 minutes with 100 ul Hoechst dye at 1 μg/mL (20 mM stock) to stain cell nuclei. Wells were then washed with 200 μl PBS, and 100 ul of PBS was added to each well and the plate covered plate with a plastic opaque cover. Plates were stored at 4° C. and covered in aluminum foil until imaged.
Plates were equilibrated to room temperature prior to reading. The bottom of the plate was wiped with 70% isopropanol immediately prior to imaging.
10×, 4 fields/well, include Top hat smoothing in the analysis protocol.
16% paraformaldehyde: Electron Microscopy Sciences #15710
Hoechst: Thermofisher #62249
Blocker BSA in PBS, 10%: Thermofisher #37515
Blocker BSA in TBS, 10%: Thermofisher #37520
Goat anti-rabbit or mouse AlexaFluor-488: Thermofisher #A11008
Cell mask deep red AlexaFluor-647: Thermofisher #C10046
Wash buffer, PBS: 20×PBS, Thermofisher

A word on the DC50: it is the midpoint of the concentration-degradation curve. One may read the Dmax as the greatest extent of degradation seen. Turning to `CNC(=O)COc1cc2cc(Nc3nc(N4CCN(CC5CC6(CCN(c7ccc8c(c7)CN(C7CCC(=O)NC7=O)C8=O)CC6)C5)CC4)ncc3Cl)ccc2n(C(C)C)c1=O` (stereo not shown) [Compound 6, 2-{[6-({5-chloro-2-[4-({7-[2-(2,6-dioxopiperidin-3-yl)-1-oxo-2,3-dihydro-1H-isoindol-5-yl]-7-azaspiro[3.5]nonan-2-yl}methyl)piperazin-1-yl]pyrimidin-4-yl}amino)-2-oxo-1-(propan-2-yl)-1,2-dihydroquinolin-3-yl]oxy}-N-methylacetamide], the DC50 was less than 10 nM and the Dmax was 50 to 70%.

For the compound `CNC(=O)COc1cc2cc(Nc3nc(N4CCN(CC5CC6(CCN(c7cccc8c7CN(C7CCC(=O)NC7=O)C8=O)CC6)C5)CC4)ncc3Cl)ccc2n(C(C)C)c1=O` (stereo not shown) [Compound 7, 2-{[6-({5-chloro-2-[4-({7-[2-(2,6-dioxopiperidin-3-yl)-1-oxo-2,3-dihydro-1H-isoindol-4-yl]-7-azaspiro[3.5]nonan-2-yl}methyl)piperazin-1-yl]pyrimidin-4-yl}amino)-2-oxo-1-(propan-2-yl)-1,2-dihydroquinolin-3-yl]oxy}-N-methylacetamide], the DC50 was less than 10 nM and the Dmax was no less than 70%.

`CNC(=O)COc1cc2cc(Nc3nc(N4CCC(C(C)(C)N5CC6(CCN(c7cccc8c7CN(C7CCC(=O)NC7=O)C8=O)CC6)C5)CC4)ncc3Cl)ccc2n(C(C)C)c1=O` (stereo not shown) [Compound 8, 2-{[6-({5-chloro-2-[4-(2-{7-[2-(2,6-dioxopiperidin-3-yl)-1-oxo-2,3-dihydro-1H-isoindol-4-yl]-2,7-diazaspiro[3.5]nonan-2-yl}propan-2-yl)piperidin-1-yl]pyrimidin-4-yl}amino)-2-oxo-1-(propan-2-yl)-1,2-dihydroquinolin-3-yl]oxy}-N-methylacetamide]: the DC50 is less than 10 nM and the Dmax is no less than 70%.

Take `CNC(=O)COc1cc2cc(Nc3nc(N4CCN(CC5CCC6(CC5)CN(c5c(OC)ccc7c5C(=O)N(C5CCC(=O)NC5=O)C7=O)C6)CC4)ncc3Cl)ccc2n(C(C)C)c1=O` (stereo not shown) [Compound 9, 2-{[6-({5-chloro-2-[4-({2-[2-(2,6-dioxopiperidin-3-yl)-5-methoxy-1,3-dioxo-2,3-dihydro-1H-isoindol-4-yl]-2-azaspiro[3.5]nonan-7-yl}methyl)piperazin-1-yl]pyrimidin-4-yl}amino)-2-oxo-1-(propan-2-yl)-1,2-dihydroquinolin-3-yl]oxy}-N-methylacetamide]: the DC50 is less than 10 nM and the Dmax is less than 50%.

For the compound `CNC(=O)COc1cc2cc(Nc3nc(N4CCN(CC5CCC6(CC5)CN(c5cc(OC)cc7c5C(=O)N(C5CCC(=O)NC5=O)C7=O)C6)CC4)ncc3Cl)ccc2n(C(C)C)c1=O` (stereo not shown) [Compound 10, 2-{[6-({5-chloro-2-[4-({2-[2-(2,6-dioxopiperidin-3-yl)-6-methoxy-1,3-dioxo-2,3-dihydro-1H-isoindol-4-yl]-2-azaspiro[3.5]nonan-7-yl}methyl)piperazin-1-yl]pyrimidin-4-yl}amino)-2-oxo-1-(propan-2-yl)-1,2-dihydroquinolin-3-yl]oxy}-N-methylacetamide], the DC50 lay in the range of 10 to 50 nM and the Dmax was 50 to 70%.

On to `CNC(=O)COc1cc2cc(Nc3nc(N4CCC5(CCN(CC6CCN(c7cccc8c7C(=O)N(C7CCC(=O)NC7=O)C8=O)CC6)C5)C4)ncc3Cl)ccc2n(C(C)C)c1=O` (stereo not shown) [Compound 11], for which the 50% degradation concentration (DC50) was in the range of 10 to 50 nM and the Dmax was no less than 70%.

Take `CNC(=O)COc1cc2cc(Nc3nc(N4CCC5(CCN(CC6CCN(c7cccc8c7CN(C7CCC(=O)NC7=O)C8=O)CC6)C5)C4)ncc3Cl)ccc2n(C(C)C)c1=O` (stereo not shown) [Compound 12, 2-{[6-({5-chloro-2-[7-({1-[2-(2,6-dioxopiperidin-3-yl)-1-oxo-2,3-dihydro-1H-isoindol-4-yl]piperidin-4-yl}methyl)-2,7-diazaspiro[4.4]nonan-2-yl]pyrimidin-4-yl}amino)-2-oxo-1-(propan-2-yl)-1,2-dihydroquinolin-3-yl]oxy}-N-methylacetamide]: the DC50 is less than 10 nM and the Dmax lay within 50 to 70%.

In the case of `CNC(=O)COc1cc2cc(Nc3nc(N4CCN(C(C)(C)C5CCN(c6ccc7c(c6)CN(C6CCC(=O)NC6=O)C7=O)CC5)CC4)ncc3Cl)ccc2n(C(C)C)c1=O` (stereo not shown) [Compound 13, 2-{[6-({5-chloro-2-[4-(2-{1-[2-(2,6-dioxopiperidin-3-yl)-1-oxo-2,3-dihydro-1H-isoindol-5-yl]piperidin-4-yl}propan-2-yl)piperazin-1-yl]pyrimidin-4-yl}amino)-2-oxo-1-(propan-2-yl)-1,2-dihydroquinolin-3-yl]oxy}-N-methylacetamide], the DC50 was less than 10 nM and the Dmax is no less than 70%.

With `CNC(=O)COc1cc2cc(Nc3nc(N4CCC5(CC4)CC(CN4CCN(c6cccc7c6CN(C6CCC(=O)NC6=O)C7=O)CC4)C5)ncc3Cl)ccc2n(C(C)C)c1=O` (stereo not shown) [Compound 14, 2-{[6-({5-chloro-2-[2-({4-[2-(2,6-dioxopiperidin-3-yl)-1-oxo-2,3-dihydro-1H-isoindol-4-yl]piperazin-1-yl}methyl)-7-azaspiro[3.5]nonan-7-yl]pyrimidin-4-yl}amino)-2-oxo-1-(propan-2-yl)-1,2-dihydroquinolin-3-yl]oxy}-N-methylacetamide], the DC50 is less than 10 nM and the Dmax was no less than 70%.

On to `CNC(=O)COc1cc2cc(Nc3nc(N4CCN(CC5CCN(c6cc7c(cc6F)C(=O)N(C6CCC(=O)NC6=O)C7)CC5)CC4)ncc3Cl)ccc2n(C(C)C)c1=O` (stereo not shown) [Compound 15, 2-{[6-({5-chloro-2-[4-({1-[2-(2,6-dioxopiperidin-3-yl)-6-fluoro-1-oxo-2,3-dihydro-1H-isoindol-5-yl]piperidin-4-yl}methyl)piperazin-1-yl]pyrimidin-4-yl}amino)-2-oxo-1-(propan-2-yl)-1,2-dihydroquinolin-3-yl]oxy}-N-methylacetamide], for which the DC50 was less than 10 nM and the maximal degradation (Dmax) is 50 to 70%.

As to `CNC(=O)COc1cc2cc(Nc3nc(N4CCOC5(CN(CCC6CCN(c7cccc8c7C(=O)N(C7CCC(=O)NC7=O)C8=O)CC6)C5)C4)ncc3Cl)ccc2n(C(C)C)c1=O` (stereo not shown) [Compound 16], the DC50 is no less than 100 nM.

In the case of `CNC(=O)COc1cc2cc(Nc3nc(N4CCC(F)(CN5CCC6(CCN(c7ccc8c(c7)CN(C7CCC(=O)NC7=O)C8=O)C6)C5)CC4)ncc3Cl)ccc2n(C(C)C)c1=O` (stereo not shown) [Compound 17, 2-{[6-({5-chloro-2-[4-({7-[2-(2,6-dioxopiperidin-3-yl)-1-oxo-2,3-dihydro-1H-isoindol-5-yl]-2,7-diazaspiro[4.4]nonan-2-yl}methyl)-4-fluoropiperidin-1-yl]pyrimidin-4-yl}amino)-2-oxo-1-(propan-2-yl)-1,2-dihydroquinolin-3-yl]oxy}-N-methylacetamide], the DC50 was less than 10 nM and the Dmax is less than 50%.

Take `CNC(=O)COc1cc2cc(Nc3nc(N4CCN(CC5CCN(c6cc(F)c7c(c6)CN(C6CCC(=O)NC6=O)C7=O)CC5)CC4)ncc3Cl)ccc2n(C(C)C)c1=O` (stereo not shown) [Compound 18, 2-{[6-({5-chloro-2-[4-({1-[2-(2,6-dioxopiperidin-3-yl)-7-fluoro-1-oxo-2,3-dihydro-1H-isoindol-5-yl]piperidin-4-yl}methyl)piperazin-1-yl]pyrimidin-4-yl}amino)-2-oxo-1-(propan-2-yl)-1,2-dihydroquinolin-3-yl]oxy}-N-methylacetamide]: the DC50 is less than 10 nM and the Dmax was 50 to 70%.
